# Test system: CRL 1730 HUVECs
# Assay: Microarray transcriptomics of HUVEC (HGERT/HG, HG/NG)
# Type: cell-based, human
# [1] = Breast cancer, Cysteine/gluathione
# [2] = Breast cancer, Heat shock protein
# [3] = Breast cancer, ILK signaling (integrin linked kinase)
# [4] = Breast cancer, Mitotic cell cycle
# [5] = Breast cancer, One carbon metabolism
# [6] = Breast cancer, Peptidase activity
# [7] = Breast cancer, Plasminogen activators
# [8] = Breast cancer, Reactive oxygen species
# [9] = Breast cancer, Tyrosine phosphatase activity
# [10] = HUVEC, 5 mM ERT + 30 mM glucose vs 30 mM glucose
structure (smiles),measurement,setting,value
"OC[C@@H](O)[C@@H](O)CO [ERT, meso-1,2,3,4-tetrahydroxybutane]",HGERT/HG TRIT1 (TRNA isopentenyltransferase 1),"Breast cancer, ATP metabolism",0.98 Ω
same,HGERT/HG VPS4B (Vacuolar protein sorting 4 homolog B (S. cerevisiae)),"Breast cancer, ATP metabolism",0.99 Ω
same,HGERT/HG YME1L1 (YME1-like 1 (S. cerevisiae)),"Breast cancer, ATP metabolism",1.00 Ω
same,"HGERT/HG CORO1A (Coronin, actin binding protein, 1A)","Breast cancer, Actin binding",0.94 Ω
same,HGERT/HG PLEC1 (Plectin),"Breast cancer, Actin binding",Ψ 1.03
same,HGERT/HG JUP (Junction plakoglobin),"Breast cancer, Alpha-catenin binding",Ψ 1.01
same,HGERT/HG AHCYL1 (Adenosylhomocysteinase-like 1),[1],Ψ 1.01
same,HGERT/HG ATIC (5-aminoimidazole-4-carboxamide ribonucleotide formyltransferase/IMP cyclohydroiase),[1],0.99 Ω
same,HGERT/HG ESD (Esterase D),[1],0.99 Ω
same,HGERT/HG DCK (Deoxycytidine kinase),"Breast cancer, Deoxycytidine metabolism",0.98 Ω
same,"HGERT/HG COL4A6 (Collagen, type IV, alpha 6)","Breast cancer, Focal adhesion",Ψ 1.03
same,"HGERT/HG DNAJC8 (DnaJ (Hsp40) homolog, subfamily C, member 8)",[2],0.99 Ω
same,"HGERT/HG DNAJC11 (DnaJ (Hsp40) homolog, subfamily C, member 11)",[2],Ψ 1.01
same,HGERT/HG ACTN1,"Breast cancer, Hypoxia response",0.99 Ω
same,"HGERT/HG ACTN1 (Actinin, alpha 1)",[3],Ψ 1.01
same,HGERT/HG FBLIM1 (Flamin binding LIM protein 1),[3],Ψ 1.02
same,HGERT/HG NCK2 (NCK adaptor protein 2),[3],Ψ 1.01
same,HGERT/HG PXN (Paxillin),[3],Ψ 1.01
same,"HGERT/HG RHOB (Ras homolog gene family, member B)",[3],Ψ 1.02
same,"HGERT/HG RHOJ (Ras homolog gene family, member J)",[3],Ψ 1.02
same,HGERT/HG RSU1 (Ras suppressor protein 1),[3],0.99 Ω
same,HGERT/HG VIM (Vimentin),[3],1.00 Ω
same,"HGERT/HG ACTN1 (Actinin, alpha 1)","Breast cancer, Insulin binding",Ψ 1.01
same,HGERT/HG FBLM1 (Filamin binding LIM protein 1),"Breast cancer, Insulin binding",Ψ 1.02
same,HGERT/HG NCK2 (NCK adaptor protein 2),"Breast cancer, Insulin binding",Ψ 1.01
same,"HGERT/HG PIK3R1 (Phosphoinositide-3 kinase, regulatory subunit 1 (alpha))","Breast cancer, Insulin binding",Ψ 1.03
same,HGERT/HG PXN (Paxillin),"Breast cancer, Insulin binding",Ψ 1.01
same,"HGERT/HG RHOB (Ras homolog gene family, member B)","Breast cancer, Insulin binding",Ψ 1.02
same,"HGERT/HG RHOJ (Ras homolog gene family, member J)","Breast cancer, Insulin binding",Ψ 1.02
same,HGERT/HG RSU1 (Ras suppressor protein 1),"Breast cancer, Insulin binding",0.99 Ω
same,HGERT/HG VIM (Vimentin),"Breast cancer, Insulin binding",1.00 Ω
same,HGERT/HG WDRG (WD repeat domain 6),"Breast cancer, Insulin binding",Ψ 1.02
same,HGERT/HG AZI1 (S-azacytidine induced 1),[4],Ψ 1.02
same,HGERT/HG CEP135 (Centrosomal protein 135kDa),[4],Ψ 1.01
same,HGERT/HG CEP250 (Centrosomal protein 250kDa),[4],0.99 Ω
same,HGERT/HG FGFR1OP (FGFR1 oncogene partner),[4],0.99 Ω
same,HGERT/HG MPHOSPH6 (M-phase phosphoprotein G),[4],0.99 Ω
same,HGERT/HG UBA3 (Ubiquitin-like modifier activating enzyme 3),[4],0.99 Ω
same,HGERT/HG AHCYL1 (Adenosylhomocysteinase-like 1),[5],Ψ 1.01
same,HGERT/HG ATIC (5-aminoimdazole-4-carboxamide ribonucleotide formyltransferase/IMP cyclohydroiase),[5],0.99 Ω
same,HGERT/HG ESD (Esterase D),[5],0.99 Ω
same,HGERT/HG OSTM1 (Osteopetrosis associated transmembrane protein 1),"Breast cancer, Osteoclast differentiation",0.99 Ω
same,"HGERT/HG CORO1A (Coronin, actin binding protein, 1A)","Breast cancer, PI3 kinase binding",0.94 Ω
same,HGERT/HG ATXN3 (Ataxin 3),[6],0.99 Ω
same,HGERT/HG OTUD5 (OTU domain containing 5),[6],Ψ 1.01
same,HGERT/HG SENP3 (SUMO1/sentrin/SMT3 sepcific peptidase 3),[6],Ψ 1.01
same,HGERT/HG WFDC12 (WAP four-disulfide core domain 12),[6],0.96 Ω
same,HGERT/HG BAD2 (Bromodomain containing 2),[7],Ψ 1.02
same,"HGERT/HG RHOJ (Ras homolog gene family, member J)",[7],Ψ 1.02
same,HGERT/HG COX8A (Cytochrome c oxidase subunit VIIIA (ubiquitous)),[8],0.99 Ω
same,HGERT/HG JUP (Junction plankoglobin),[8],Ψ 1.01
same,HGERT/HG MPHOSPH6 (M-phase phosphoprotein 6),[8],0.99 Ω
same,"HGERT/HG SDHD (Succinate dehydrogenase complex, subunit D, integral membrane protein)",[8],0.98 Ω
same,HGERT/HG SMOX (Spermine oxidase),[8],0.99 Ω
same,HGERT/HG SOS1 (Son of sevenless homolog 1 (Drosophila)),[8],Ψ 1.06
same,HGERT/HG TCF12 (Transcription factor 12),[8],0.99 Ω
same,"HGERT/HG TGM2 (Transglutaminase 2 (C polypeptide, protein-glutamine-gamma-glutamyltransferase))",[8],Ψ 1.01
same,HGERT/HG PAQR3 (Progestin and adipoQ receptor family member III),"Breast cancer, Receptor activity",0.98 Ω
same,HGERT/HG EID2 (EP300 interacting inhibitor of differentiation 2),"Breast cancer, SMAD binding",0.99 Ω
same,HGERT/HG PGRMC2 (Progesterone receptor membrane component 2),"Breast cancer, Steroid hormone receptor activity",0.98 Ω
same,HGERT/HG HS3ST1 (Heparan sulfate (glucosamine) 3-O-sulfotransferase 1),"Breast cancer, Sulfotransferase acfivity",Ψ 1.03
same,HGERT/HG DUSP23 (Dual specificity phosphatase 23),[9],0.99 Ω
same,HGERT/HG PTPLAD1 (Protein tyrosine phosphatase-like A domain containing 1),[9],Ψ 1.01
same,"transcriptomic changes, HG/NG vs HGERT/HG","HUVEC, HG conditions",reverses many of the transciptomic changes observed in its absence
same,HGERT/HG transcript ABCB10,[10],0.98 Ω
same,HGERT/HG transcript ACTL6A,[10],0.98 Ω
same,HGERT/HG transcript ACTN1,[10],Ψ 1.01
same,HGERT/HG transcript ACTR5,[10],Ψ 1.01
same,HGERT/HG transcript AGTPBP1,[10],0.98
same,HGERT/HG transcript AHCYL1,[10],Ψ 1.01
same,HGERT/HG transcript ANKZF1,[10],0.99
same,HGERT/HG transcript ATAD1,[10],0.99 Ω
same,HGERT/HG transcript ATAD3B,[10],Ψ 1.01
same,HGERT/HG transcript ATIC,[10],0.99 Ω
same,HGERT/HG transcript ATP2C1,[10],0.99 Ω
same,HGERT/HG transcript ATP5E,[10],0.99 Ω
same,HGERT/HG transcript ATP5O,[10],1.00 Ω
same,HGERT/HG transcript ATP13A1,[10],Ψ 1.02
same,HGERT/HG transcript AZI1,[10],Ψ 1.02
same,HGERT/HG transcript BACE1,[10],Ψ 1.02
same,HGERT/HG transcript BBS10,[10],0.98 Ω
same,HGERT/HG transcript BRD2,[10],Ψ 1.02
same,HGERT/HG transcript Bcl2l12,[10],Ψ 1.02
same,HGERT/HG transcript C3orf26,[10],0.99 Ω
same,HGERT/HG transcript C6orf66,[10],0.99 Ω
same,HGERT/HG transcript C20orf7,[10],0.99 Ω
same,HGERT/HG transcript CARS,[10],1.00 Ω
same,HGERT/HG transcript CENPK,[10],0.97 Ω
same,HGERT/HG transcript CEP135,[10],Ψ 1.01
same,HGERT/HG transcript CEP250,[10],0.99
same,HGERT/HG transcript CHMP7,[10],0.99
same,HGERT/HG transcript CIB1,[10],1.00 Ω
same,HGERT/HG transcript CKAPS,[10],Ψ 1.01
same,HGERT/HG transcript CNIH2,[10],0.99
same,HGERT/HG transcript COG6,[10],0.99
same,HGERT/HG transcript COL4A6,[10],Ψ 1.03
same,HGERT/HG transcript CORO1A,[10],0.94 Ω
same,HGERT/HG transcript COX8A,[10],0.99 Ω
same,HGERT/HG transcript CSNK1G1,[10],Ψ 1.02
